Test results published in patent publication EP2899531B1, “Method for detecting a chiral analytes” (Jacobs University Bremen gGmbH, priority 2013, dated 2015).
Peptide text beside a SMILES is read from it.

Each compound was assayed on CB8-MDPP (assay: Binding constants of chiral analytes with CB8-MDPP receptor complex, ICD titration). Settings: CB8-MDPP (20 µM), H2O, 22 °C; obtained by ICD titration.
Excerpt: Die Bindungsaffinitäten der strukturell verschiedenartigen Analyten lagen im Bereich von 10^3 bis 10^6 M^-1, wodurch eine hochempfindliche Detektion ermöglicht wird. Die durch ICD-Titrationen ermittelten Bindungskonstanten bestätigten die durch UV/Vis-Messungen ermittelten. In allen Fällen fungiert CB8 als unverzichtbare Grundlage für die ICD-Effekte. […] Wie erwartet, ergab ein anderer Reporter-Farbstoff, MDAP oder MVE, jeweils ein anderes ICD-Spektrum, jedoch bei gleichermaßen niedriger Analytenkonzentration (40-100 µM, im Vergleich zu 20 µM, s. Tabelle 4, Fig. 3).

Compound | Ka
CC(C)[C@H](NC(=O)[C@@H](N)Cc1ccccc1)C(=O)O [PheVal] (H-Phe-Val-OH) | 1400^d 10^3 M^-1

The compounds below were run on CB8-MDAP (assay: Binding constants of chiral analytes with CB8-MDAP receptor complex, UV/Vis titration). Settings: CB8-MDAP (100 µM), H2O, 22 °C; from UV/Vis titrations, estimated error ≤ 10%.
Excerpt: (§1) Bindungskonstanten zwischen CB8-Farbstoff-Komplexen und den in Tabelle 1 aufgeführten Analyten wurden mittels UV/Vis-Titration in H2O, sofern nicht anders angegeben, durchgeführt. Zu einer Lösung aus dem CB8-Farbstoff-Rezeptor wurde schrittweise eine Lösung des Analyten gegeben, und die UV/Vis-Spektren wurden aufgezeichnet. Die normalisierte Absorption bei 419 nm (CB8-MDAP) oder bei 443 nm (CB8-MDPP) wurde mit einer Gleichung für eine 1:1-Bindung mittels der Kleinstquadratmethode angepasst ([50]).

Compound | Ka
N[C@@H](CC(=O)O)C(=O)N[C@@H](Cc1ccccc1)C(=O)O [AspPhe] (H-Asp-Phe-OH) | 0.8 10^3 M^-1
N[C@@H](CCC(=O)O)C(=O)N[C@@H](Cc1c[nH]c2ccccc12)C(=O)O [GluTrp] (H-Glu-Trp-OH) | 25 10^3 M^-1
N[C@@H](Cc1ccccc1)C(=O)NCC(=O)O [PheGly] (H-Phe-Gly-OH) | 25 10^3 M^-1
CC(C)[C@H](NC(=O)[C@@H](N)Cc1ccccc1)C(=O)O [PheVal] (H-Phe-Val-OH) | 11 10^3 M^-1
N[C@@H](Cc1c[nH]c2ccccc12)C(=O)N1CCC[C@H]1C(=O)O [TrpPro] (H-Trp-Pro-OH) | 50 10^3 M^-1

Each compound was assayed on CB8-MDPP (assay: Binding constants of chiral analytes with CB8-MDPP receptor complex, UV/Vis titration). Settings: CB8-MDPP (20 µM), H2O, 22 °C; from UV/Vis titrations, estimated error ≤ 10%.
Excerpt: as §1

Compound | Ka
N[C@@H](CC(=O)O)C(=O)N[C@@H](Cc1ccccc1)C(=O)O [AspPhe] (H-Asp-Phe-OH) | 7 10^3 M^-1
N[C@@H](CCC(=O)O)C(=O)N[C@@H](Cc1c[nH]c2ccccc12)C(=O)O [GluTrp] (H-Glu-Trp-OH) | 210 10^3 M^-1
NCC(=O)N[C@@H](Cc1c[nH]c2ccccc12)C(=O)NCC(=O)O [GlyTrpGly] (H-Gly-Trp-Gly-OH) | 5000 10^3 M^-1
N[C@@H](Cc1ccccc1)C(=O)NCC(=O)O [PheGly] (H-Phe-Gly-OH) | 1900 10^3 M^-1
CC(C)[C@H](NC(=O)[C@@H](N)Cc1ccccc1)C(=O)O [PheVal] (H-Phe-Val-OH) | 1500 10^3 M^-1
N[C@@H](Cc1c[nH]c2ccccc12)C(=O)NCC(=O)NCC(=O)O [TrpGlyGly] (H-Trp-Gly-Gly-OH) | 200 10^3 M^-1
N[C@@H](Cc1c[nH]c2ccccc12)C(=O)N1CCC[C@H]1C(=O)O [TrpPro] (H-Trp-Pro-OH) | 430 10^3 M^-1
